Earlier results as cited in patent US5141290A, “Toothbrush” (Hamivreshet Brush Factory, priority 1990, dated 1992).

Test system: dental plaque

For `[H]/N=C(\N/C(=N/[H])NCCCCCCNC(=N)NC(=N)Nc1ccc(Cl)cc1)Nc1ccc(Cl)cc1` [chlorhexidine], the “potential to inhibit the formation of plaque” value (clinically tested, among chemical agents) is listed as “has shown the greatest promise” and the plaque-reducing property (in vivo) is listed as “high plaque-reducing property”.
